Source: US11065616B2, “Methods of making microfluidic devices” (KING ABDULLAH UNIVERSITY OF SCIENCE AND TECHNOLOGY, priority 2015, dated 2021)

Tested on: Hela cells
Assay: Cytotoxicity of Doxorubicin concentrations generated by the microfluidic gradient generator (CCK-8)
Type: cell-based, Human
Settings: gradient 100-0 μg/ml DOX at the outlet ports, 24 h incubation, surface modified channels
Protocol: Hela cells were cultured in EMEM media supplemented with 10% fetal bovine serum (FBS) and 1% penicillin-streptomycin at 37° C. in a 5% CO2 humidified atmosphere. After cell detachment, the cell suspension was centrifuged, the pallet was collected, and cells were counted for further plating. Hela cells were seeded in 96 well plates at a density of 5×10^3/well. Alter 24 h, cells were treated with five different concentrations of the anticancer drug Doxorubicin (DOX) generated by the microfluidic gradient generator at a flow rate of 8.5 μl/min. The incubation of cells with test samples lasts for 24 h at 37° C. Then, the culture medium was discarded, and 100 μL of CCK8 solution in MEM media were added to each well and incubated for 4 h in darkness. The absorbance values were measured at […] using the xMark™ microplate absorbance spectrophotometer.
Two types of 3D printer resins (1) FormLabs clear and (2) Spot-Elastic were used to build microfluidic devices. The media for cell cultures were injected by passing the EMEM media through the reported microfluidic gradient generator, Both the inlets were fed with media for the first experiment. […] Doxorubicin was introduced to the cell culture after surface modification, and only one of the inlets was fed with Doxorubicin incorporated EMEM media and the other was fed with normal (Doxorubicin-free) EMEM media. […]

COc1cccc2c1C(=O)c1c(O)c3c(c(O)c1C2=O)C[C@@](O)(C(=O)CO)C[C@@H]3O[C@H]1C[C@H](N)[C@H](O)[C@H](C)O1 [DOX, Doxorubicin]
cell viability versus DOX concentration (in words): higher viability with a decrease in concentration of DOX
